Data published in PMC7424068, “Design, Synthesis, and Biological Evaluation of Novel Thiazolidinone-Containing Quinoxaline-1,4-di-N-oxides as Antimycobacterial and Antifungal Agents” (Frontiers in Chemistry, 2020).
Values after ≈ are worked out from the molar mass of the structure shown. Read-outs that look alike come from different tables or passages of the source.

Key:
[1] = test system: Mtb H37Rv (ATCC27294); test: Antimycobacterial activity, microplate Alamar blue assay (MABA); assay type: cell-based, Mycobacterium tuberculosis; settings: for antimycobacterial activity (in words): Mtb strain H37Rv
[2] = test system: VERO cell line; test: Cytotoxicity MTT assay; assay type: cell-based; settings: Chlorocebus sabaeus, cytotoxicity in VERO cells, 72 h
Experimental: VERO cells (2 × 10^4 cells) were seeded into 96-well plates and incubated for 12 h. Serial dilutions of the compounds were mixed with the cell suspension in the plates. Both treated cells and blank and solvent controls were incubated for 72 h, followed by incubation with MTT (0.5 mg/mL) for another 4 h. The microplates were measured at 570 nm using a multimode reader (Infinite M200, Tecan). The percentage of viable cells was calculated as the mean with respect to the controls set to 100%. Triplicate wells were analyzed for each concentration. IC50 was defined as the concentration that reduced the viable cells by 50% compared to the untreated control cells. It was considered significant when the SI was more than 10.

[3] = test system: C. albicans (ATCC90028); test: Antifungal activity, broth microdilution; assay type: cell-based, Candida albicans; settings: Candida albicans ATCC 90028, read-out: MIC
Experimental: (§1) All synthesized compounds and the positive control drugs amphotericin B and ketoconazole were tested for their in vitro antifungal activity. Antifungal activity was evaluated against four fungi, C. albicans (ATCC90028), C. tropicalis (ATCC7349), A. fumigatus (3.5352), and C. neoformans (2.3201), by broth microdilution according to the protocols from the NCCLS (Jiang et al., [2014]). Briefly, all tested compounds were dissolved in DMSO, and the solutions were diluted with fresh broth medium. All of the fungi-seeded broth (1 × 10^5 colony-forming units [CFU]/mL) were prepared in RPMI 1640 medium and added into the serially diluted drug solution. The tubes were incubated at 28°C, and the MIC (μg/mL) was recorded 72–96 h post-incubation. Broth control (without fungi), growth controls (with fungi and without drug), solvent (DMSO) control, and drug control for both test drugs and standard drugs were set under identical conditions. The minimum drug concentration in the tubes in which no apparent growth of the organism was observed represented the MIC of the compounds.

[4] = test system: A. fumigatus (3.5352); test: Antifungal activity, broth microdilution; assay type: cell-based; settings: Aspergillus fumigatus; A. fumigatus 3.5352; read-out: MIC
Experimental: as §1

[5] = test system: C. neoformans (2.3201); test: Antifungal activity, broth microdilution; assay type: cell-based; settings: Cryptococcus neoformans; C. neoformans 2.3201; read-out: MIC
Experimental: as §1

[6] = test system: C. tropicalis (ATCC7349); test: Antifungal activity, broth microdilution; assay type: cell-based; settings: Candida tropicalis, C. tropicalis ATCC 7349, read-out: MIC
Experimental: as §1

[7] = Mycobacterium tuberculosis, Mtb H37Rv, MABA assay, read-out: MIC
[8] = Mycobacterium tuberculosis, Mtb H37Rv, repeated in Table 5 for the 3D-QSAR models, read-out: MIC
[9] = Mycobacterium tuberculosis, experimental pMIC, Mtb H37Rv, Table 5, read-out: pMIC exp (converted)

Compound	antimycobacterial activity (in words) [1]	MIC [1, 7]	MIC [1, 8]	MIC [1, 9]	IC50 [2]	MIC [3]	MIC [4]	MIC [5]	MIC [6]	melting point	MIC ([1]; Mycobacterium tuberculosis)	MIC ([1]; Mtb H37Rv, MABA assay)
O=C1CSC(c2c[n+]([O-])c3ccccc3[n+]2[O-])N1c1ccccc1 (centres unmarked) [2a, 2-(3′-phenyl-4′(5H)-thiazolidinone)-quinoxaline-1,4-di-N-oxide]	good antimycobacterial activity	6.25 µg/mL	6.25 µg/mL	18.5 µM	144 µg/mL (≈ 423 µM)	16 µg/mL (≈ 47.1 µM)	32 µg/mL (≈ 94.3 µM)	16 µg/mL (≈ 47.1 µM)	8 µg/mL (≈ 23.6 µM)	245 to 248 °C	–	–
Cc1ccc(N2C(=O)CSC2c2c[n+]([O-])c3ccccc3[n+]2[O-])cc1 (centres unmarked) [2b, 2-(3′-P-methylphenyl-4′(5H)-thiazolidinone)-quinoxaline-1,4-di-N-oxide]	–	12.5 µg/mL	12.5 µg/mL	35.4 µM	–	16 µg/mL (≈ 45.3 µM)	32 µg/mL (≈ 90.5 µM)	32 µg/mL (≈ 90.5 µM)	8 µg/mL (≈ 22.6 µM)	251 to 253 °C	–	–
COc1ccc(N2C(=O)CSC2c2c[n+]([O-])c3ccccc3[n+]2[O-])cc1 (centres unmarked) [2c, 2-(3′-P-methoxyphenyl-4′(5H)-thiazolidinone)-quinoxaline-1,4-di-N-oxide]	–	12.5 µg/mL	12.5 µg/mL	33.9 µM	–	64 µg/mL (≈ 173 µM)	> 64 µg/mL	32 µg/mL (≈ 86.6 µM)	32 µg/mL (≈ 86.6 µM)	255 to 257 °C	–	–
O=C1CSC(c2c[n+]([O-])c3ccccc3[n+]2[O-])N1c1ccc(F)cc1 (centres unmarked) [2d, 2-(3′-P-fluorophenyl-4′(5H)-thiazolidinone)-quinoxaline-1,4-di-N-oxide]	good antimycobacterial activity	3.13 µg/mL	3.13 µg/mL	8.77 µM	123 µg/mL (≈ 344 µM)	16 µg/mL (≈ 44.8 µM)	32 µg/mL (≈ 89.5 µM)	8 µg/mL (≈ 22.4 µM)	8 µg/mL (≈ 22.4 µM)	240 to 242 °C	–	–
O=C1CSC(c2c[n+]([O-])c3ccccc3[n+]2[O-])N1c1ccc(Cl)cc1 (centres unmarked) [2e, 2-(3′-P-chlorophenyl-4′(5H)-thiazolidinone)-quinoxaline-1,4-di-N-oxide]	good antimycobacterial activity	≤ 3.13 µg/mL	3.13 µg/mL	8.39 µM	116 µg/mL (≈ 310 µM)	8 µg/mL (≈ 21.4 µM)	32 µg/mL (≈ 85.6 µM)	16 µg/mL (≈ 42.8 µM)	8 µg/mL (≈ 21.4 µM)	249 to 252 °C	–	–
O=C1CSC(c2c[n+]([O-])c3ccccc3[n+]2[O-])N1C1CC1 (centres unmarked) [2f, 2-(3′-cyclopropyl-4′(5H)-thiazolidinone)-quinoxaline-1,4-di-N-oxide]	–	25 µg/mL	25 µg/mL	82.4 µM	–	32 µg/mL (≈ 105 µM)	64 µg/mL (≈ 211 µM)	64 µg/mL (≈ 211 µM)	16 µg/mL (≈ 52.7 µM)	249 to 252 °C	–	–
Cc1ccc2c(c1)[n+]([O-])c(C1SCC(=O)N1c1ccccc1)c[n+]2[O-] (centres unmarked) [2g, 7-CH3-2-(3′-phenyl-4′(5H)-thiazolidinone)-quinoxaline-1,4-di-N-oxide]	–	12.5 µg/mL	12.5 µg/mL	35.4 µM	–	32 µg/mL (≈ 90.5 µM)	32 µg/mL (≈ 90.5 µM)	32 µg/mL (≈ 90.5 µM)	16 µg/mL (≈ 45.3 µM)	255 to 257 °C	–	–
Cc1ccc(N2C(=O)CSC2c2c[n+]([O-])c3ccc(C)cc3[n+]2[O-])cc1 (centres unmarked) [2h, 7-CH3-2-(3′-P-methylphenyl-4′(5H)-thiazolidinone)-quinoxaline-1,4-di-N-oxide]	–	25 µg/mL	25 µg/mL	68.1 µM	–	32 µg/mL (≈ 87.1 µM)	64 µg/mL (≈ 174 µM)	32 µg/mL (≈ 87.1 µM)	8 µg/mL (≈ 21.8 µM)	257 to 259 °C	–	–
COc1ccc(N2C(=O)CSC2c2c[n+]([O-])c3ccc(C)cc3[n+]2[O-])cc1 (centres unmarked) [2i, 7-CH3-2-(3′-P-methoxyphenyl-4′(5H)-thiazolidinone)-quinoxaline-1,4-di-N-oxide]	–	50 µg/mL	50 µg/mL	131 µM	–	64 µg/mL (≈ 167 µM)	> 64 µg/mL	16 µg/mL (≈ 41.7 µM)	32 µg/mL (≈ 83.5 µM)	255 to 259 °C	–	–
COc1ccc2c(c1)[n+]([O-])c(C1SCC(=O)N1c1ccccc1)c[n+]2[O-] (centres unmarked) [2l, 7-OMe-2-(3′-phenyl-4′(5H)-thiazolidinone)-quinoxaline-1,4-di-N-oxide]	–	100 µg/mL	100 µg/mL	271 µM	–	64 µg/mL (≈ 173 µM)	> 64 µg/mL	> 64 µg/mL	32 µg/mL (≈ 86.6 µM)	254 to 258 °C	–	–
COc1ccc2c(c1)[n+]([O-])c(C1SCC(=O)N1c1ccc(C)cc1)c[n+]2[O-] (centres unmarked) [2m, 7-OMe-2-(3′-P-methylphenyl-4′(5H)-thiazolidinone)-quinoxaline-1,4-di-N-oxide]	–	100 µg/mL	100 µg/mL	261 µM	–	> 64 µg/mL	> 64 µg/mL	> 64 µg/mL	64 µg/mL (≈ 167 µM)	257 to 259 °C	–	–
COc1ccc(N2C(=O)CSC2c2c[n+]([O-])c3ccc(OC)cc3[n+]2[O-])cc1 (centres unmarked) [2n, 7-OMe-2-(3′-P-methoxyphenyl-4′(5H)-thiazolidinone)-quinoxaline-1,4-di-N-oxide]	–	200 µg/mL	200 µg/mL	501 µM	–	> 64 µg/mL	> 64 µg/mL	> 64 µg/mL	64 µg/mL (≈ 160 µM)	258 to 260 °C	–	–
COc1ccc2c(c1)[n+]([O-])c(C1SCC(=O)N1c1ccc(F)cc1)c[n+]2[O-] (centres unmarked) [2o, 7-OMe-2-(3′-P-fluorophenyl-4′(5H)-thiazolidinone)-quinoxaline-1,4-di-N-oxide]	–	50 µg/mL	50 µg/mL	129 µM	–	64 µg/mL (≈ 165 µM)	64 µg/mL (≈ 165 µM)	32 µg/mL (≈ 82.6 µM)	64 µg/mL (≈ 165 µM)	255 to 257 °C	–	–
COc1ccc2c(c1)[n+]([O-])c(C1SCC(=O)N1c1ccc(Cl)cc1)c[n+]2[O-] (centres unmarked) [2p, 7-OMe-2-(3′-P-chlorophenyl-4′(5H)-thiazolidinone)-quinoxaline-1,4-di-N-oxide]	–	50 µg/mL	50 µg/mL	124 µM	–	64 µg/mL (≈ 158 µM)	> 64 µg/mL	32 µg/mL (≈ 79.2 µM)	64 µg/mL (≈ 158 µM)	253 to 256 °C	–	–
Cc1ccc(N2C(=O)CSC2c2c[n+]([O-])c3ccc(F)cc3[n+]2[O-])cc1 (centres unmarked) [2r, 7-F-2-(3′-P-methylphenyl-4′(5H)-thiazolidinone)-quinoxaline-1,4-di-N-oxide]	–	12.5 µg/mL	12.5 µg/mL	33.7 µM	–	8 µg/mL (≈ 21.5 µM)	8 µg/mL (≈ 21.5 µM)	16 µg/mL (≈ 43.1 µM)	8 µg/mL (≈ 21.5 µM)	249 to 251 °C	–	–
COc1ccc(N2C(=O)CSC2c2c[n+]([O-])c3ccc(F)cc3[n+]2[O-])cc1 (centres unmarked) [2s, 7-F-2-(3′-P-methoxyphenyl-4′(5H)-thiazolidinone)-quinoxaline-1,4-di-N-oxide]	–	25 µg/mL	25 µg/mL	64.6 µM	–	8 µg/mL (≈ 20.7 µM)	8 µg/mL (≈ 20.7 µM)	8 µg/mL (≈ 20.7 µM)	8 µg/mL (≈ 20.7 µM)	251 to 253 °C	–	–
COc1ccc(N2C(=O)CSC2c2c[n+]([O-])c3ccc(Cl)cc3[n+]2[O-])cc1 (centres unmarked) [2x, 7-Cl-2-(3′-P-methoxyphenyl-4′(5H)-thiazolidinone)-quinoxaline-1,4-di-N-oxide]	–	12.5 µg/mL	12.5 µg/mL	31 µM	–	8 µg/mL (≈ 19.8 µM)	8 µg/mL (≈ 19.8 µM)	8 µg/mL (≈ 19.8 µM)	8 µg/mL (≈ 19.8 µM)	252 to 254 °C	–	–
CO[C@H]1/C=C/O[C@@]2(C)Oc3c(C)c(O)c4c(O)c(c(/C=N/N5CCN(C)CC5)c(O)c4c3C2=O)NC(=O)/C(C)=C\C=C\[C@H](C)[C@H](O)[C@@H](C)[C@@H](O)[C@@H](C)[C@H](OC(C)=O)[C@@H]1C [RMP, Rifampicin, reference compound]	–	–	–	–	–	–	–	–	–	–	0.125 µg/mL	–
N=C1NC(=O)/C(=C/c2c[n+]([O-])c3ccccc3[n+]2[O-])S1 [V, 2-(2′-iminothiazolidin-4′-one)-quinoxaline-1,4-di-N-oxide]	–	> 50 µg/mL	–	–	–	–	–	–	–	–	–	>50 µg/mL
O=C1CSC(c2c[n+]([O-])c3ccccc3[n+]2[O-])N1 (centres unmarked) [VI, 2-(4'(5H)-thiazolone)-quinoxaline-1,4-di-N-oxide]	–	6.25 µg/mL	–	–	–	–	–	–	–	–	–	–
